Laboratory results from PMC10620772, “Design, synthesis, and biological evaluation of new pyrimidine-5-carbonitrile derivatives as novel anti-cancer, dual EGFR^WT/COX-2 inhibitors with docking studies” (RSC Advances, 2023).

Experiments:
Type in all cases: cell-based, human
A549/ATCC = assay: NCI60 antitumor screening; conditions: 10 μM one-dose
SN12C = assay: NCI60 antitumor screening; conditions: 10 μM one-dose
UACC-257 = assay: NCI60 antitumor screening; conditions: 10 μM one-dose
NCI60 cell lines panel = assay: NCI60 antitumor screening, full panel; conditions: 10 μM one-dose, mean over NCI60
Procedure, shortened: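 Percent growth inhibition (GI%) was recorded for each of the NCI60 lines, spanning leukaemia, lung, colon, CNS, melanoma, ovarian, renal, prostate and breast cancers, after exposure to compounds at one concentration, 10 μM.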

COLO 205 = assay: NCI60 antitumor screening; conditions: 10 μM one-dose
PC-3 = assay: NCI60 antitumor screening; conditions: 10 μM one-dose
IGROV1 = assay: NCI60 antitumor screening; conditions: 10 μM one-dose
EKVX = assay: NCI60 antitumor screening; conditions: 10 μM one-dose
MDA-MB-435 = assay: NCI60 antitumor screening; conditions: 10 μM one-dose
786–0 = assay: NCI60 antitumor screening; conditions: 10 μM one-dose
OVCAR-3 = assay: NCI60 antitumor screening; conditions: 10 μM one-dose
SK-MEL-28 = assay: NCI60 antitumor screening; conditions: 10 μM one-dose
NCI-H522 = assay: NCI60 antitumor screening; conditions: 10 μM one-dose
MCF7 = assay: NCI60 antitumor screening; conditions: 10 μM one-dose
NCI-H322M = assay: NCI60 antitumor screening; conditions: 10 μM one-dose
UACC-62 = assay: NCI60 antitumor screening; conditions: 10 μM one-dose
MDA-MB-468 = assay: NCI60 antitumor screening; conditions: 10 μM one-dose
MALME-3M = assay: NCI60 antitumor screening; conditions: 10 μM one-dose
HT29 = assay: NCI60 antitumor screening; conditions: 10 μM one-dose
CCRF-CEM = assay: NCI60 antitumor screening; conditions: 10 μM one-dose
KM12 = assay: NCI60 antitumor screening; conditions: 10 μM one-dose
A498 = assay: NCI60 antitumor screening; conditions: 10 μM one-dose
U251 = assay: NCI60 antitumor screening; conditions: 10 μM one-dose
HOP-62 = assay: NCI60 antitumor screening; conditions: 10 μM one-dose
HCT-15 = assay: NCI60 antitumor screening; conditions: 10 μM one-dose
OVCAR-8 = assay: NCI60 antitumor screening; conditions: 10 μM one-dose
TK-10 = assay: NCI60 antitumor screening; conditions: 10 μM one-dose
OVCAR-5 = assay: NCI60 antitumor screening; conditions: 10 μM one-dose
SF-295 = assay: NCI60 antitumor screening; conditions: 10 μM one-dose
RXF 393 = assay: NCI60 antitumor screening; conditions: 10 μM one-dose
SR = assay: NCI60 antitumor screening; conditions: 10 μM one-dose
K-562 = assay: NCI60 antitumor screening; conditions: 10 μM one-dose
HCC-2998 = assay: NCI60 antitumor screening; conditions: 10 μM one-dose
SNB-19 = assay: NCI60 antitumor screening; conditions: 10 μM one-dose
DU-145 = assay: NCI60 antitumor screening; conditions: 10 μM one-dose
NCI-H23 = assay: NCI60 antitumor screening; conditions: 10 μM one-dose
SW-620 = assay: NCI60 antitumor screening; conditions: 10 μM one-dose
SNB-75 = assay: NCI60 antitumor screening; conditions: 10 μM one-dose
MOLT-4 = assay: NCI60 antitumor screening; conditions: 10 μM one-dose
ACHN = assay: NCI60 antitumor screening; conditions: 10 μM one-dose
HS 578T = assay: NCI60 antitumor screening; conditions: 10 μM one-dose
NCI/ADR-RES = assay: NCI60 antitumor screening; conditions: 10 μM one-dose
CAKI-1 = assay: NCI60 antitumor screening; conditions: 10 μM one-dose
OVCAR-4 = assay: NCI60 antitumor screening; conditions: 10 μM one-dose
HCT-116 = assay: NCI60 antitumor screening; conditions: 10 μM one-dose
UO-31 = assay: NCI60 antitumor screening; conditions: 10 μM one-dose
MDA-MB-231/ATCC = assay: NCI60 antitumor screening; conditions: 10 μM one-dose
BT-549 = assay: NCI60 antitumor screening; conditions: 10 μM one-dose
HOP-92 = assay: NCI60 antitumor screening; conditions: 10 μM one-dose
SF-268 = assay: NCI60 antitumor screening; conditions: 10 μM one-dose
SK-OV-3 = assay: NCI60 antitumor screening; conditions: 10 μM one-dose
NCI-H226 = assay: NCI60 antitumor screening; conditions: 10 μM one-dose
NCI-H460 = assay: NCI60 antitumor screening; conditions: 10 μM one-dose
SK-MEL-2 = assay: NCI60 antitumor screening; conditions: 10 μM one-dose
T-47D = assay: NCI60 antitumor screening; conditions: 10 μM one-dose
HL-60(TB) = assay: NCI60 antitumor screening; conditions: 10 μM one-dose
SF-539 = assay: NCI60 antitumor screening; conditions: 10 μM one-dose
M14 = assay: NCI60 antitumor screening; conditions: 10 μM one-dose
RPMI-8226 = assay: NCI60 antitumor screening; conditions: 10 μM one-dose
LOX IMVI = assay: NCI60 antitumor screening; conditions: 10 μM one-dose
SK-MEL-5 = assay: NCI60 antitumor screening; conditions: 10 μM one-dose

N#Cc1c(Cl)nc(SCc2ccccc2)nc1-c1ccc(F)cc1 [3a, 2-(Benzylthio)-4-chloro-6-(4-fluorophenyl) pyrimidine-5-carbonitrile]
GI% (A549/ATCC): 16.44%
GI% (SN12C): — (GI% < 10)
GI% (UACC-257): — (GI% < 10)
Mean GI% (NCI60 cell lines panel): — (GI% < 10)
GI% (COLO 205): — (GI% < 10)
GI% (PC-3): — (GI% < 10)
GI% (IGROV1): — (GI% < 10)
GI% (EKVX): — (GI% < 10)
GI% (MDA-MB-435): — (GI% < 10)
GI% (786–0): 38.26%
GI% (OVCAR-3): — (GI% < 10)
GI% (SK-MEL-28): — (GI% < 10)
GI% (NCI-H522): 16.01%
GI% (MCF7): — (GI% < 10)
GI% (NCI-H322M): — (GI% < 10)
GI% (UACC-62): — (GI% < 10)
GI% (MDA-MB-468): — (GI% < 10)
GI% (MALME-3M): — (GI% < 10)
GI% (HT29): — (GI% < 10)
GI% (CCRF-CEM): — (GI% < 10)
GI% (KM12): — (GI% < 10)
GI% (A498): — (GI% < 10)
GI% (U251): 39.15%
GI% (HOP-62): 12.77%
GI% (HCT-15): — (GI% < 10)
GI% (OVCAR-8): 27.14%
GI% (TK-10): — (GI% < 10)
GI% (OVCAR-5): — (GI% < 10)
GI% (SF-295): 27.87%
GI% (RXF 393): 19.19%
GI% (SR): — (GI% < 10)
GI% (K-562): 11.78%
GI% (HCC-2998): — (GI% < 10)
GI% (SNB-19): 16.70%
GI% (DU-145): — (GI% < 10)
GI% (NCI-H23): — (GI% < 10)
GI% (SW-620): — (GI% < 10)
GI% (SNB-75): — (GI% < 10)
GI% (MOLT-4): — (GI% < 10)
GI% (ACHN): 45.51%
GI% (HS 578T): 16.76%
GI% (NCI/ADR-RES): 20.64%
GI% (CAKI-1): 21.66%
GI% (OVCAR-4): 49.74%
GI% (HCT-116): 22.79%
GI% (UO-31): 14.25%
GI% (MDA-MB-231/ATCC): 21.72%
GI% (BT-549): 11.73%
GI% (HOP-92): 14.74%
GI% (SF-268): 21.56%
GI% (SK-OV-3): — (GI% < 10)
GI% (NCI-H226): 18.61%
GI% (NCI-H460): — (GI% < 10)
GI% (SK-MEL-2): — (GI% < 10)
GI% (T-47D): 10.38%
GI% (HL-60(TB)): 44.03%
GI% (SF-539): 24.06%
GI% (M14): — (GI% < 10)
GI% (RPMI-8226): — (GI% < 10)
GI% (LOX IMVI): — (GI% < 10)
GI% (SK-MEL-5): — (GI% < 10)

N#Cc1c(-c2ccc(F)cc2)nc(SCc2ccc([N+](=O)[O-])cc2)[nH]c1=O [2c, 4-(4-Fluorophenyl)-2-((4-nitrobenzyl)thio)-6-oxo-1,6-dihydropyrimidine-5-carbonitrile]
GI% (A549/ATCC): — (GI% < 10)
GI% (SN12C): 14.07%
GI% (UACC-257): — (GI% < 10)
Mean GI% (NCI60 cell lines panel): — (GI% < 10)
GI% (COLO 205): — (GI% < 10)
GI% (PC-3): 18.97%
GI% (IGROV1): — (GI% < 10)
GI% (EKVX): 12.04%
GI% (MDA-MB-435): — (GI% < 10)
GI% (786–0): — (GI% < 10)
GI% (OVCAR-3): — (GI% < 10)
GI% (SK-MEL-28): — (GI% < 10)
GI% (NCI-H522): 30.52%
GI% (MCF7): — (GI% < 10)
GI% (NCI-H322M): — (GI% < 10)
GI% (UACC-62): 11.42%
GI% (MDA-MB-468): — (GI% < 10)
GI% (MALME-3M): — (GI% < 10)
GI% (HT29): 37.56%
GI% (CCRF-CEM): 15.45%
GI% (KM12): — (GI% < 10)
GI% (A498): — (GI% < 10)
GI% (U251): 13.78%
GI% (HOP-62): — (GI% < 10)
GI% (HCT-15): 13.42%
GI% (OVCAR-8): — (GI% < 10)
GI% (TK-10): — (GI% < 10)
GI% (OVCAR-5): — (GI% < 10)
GI% (SF-295): 10.37%
GI% (RXF 393): — (GI% < 10)
GI% (SR): — (GI% < 10)
GI% (K-562): 31.45%
GI% (HCC-2998): — (GI% < 10)
GI% (SNB-19): — (GI% < 10)
GI% (DU-145): — (GI% < 10)
GI% (NCI-H23): — (GI% < 10)
GI% (SW-620): 10.78%
GI% (SNB-75): — (GI% < 10)
GI% (MOLT-4): 24.34%
GI% (ACHN): — (GI% < 10)
GI% (HS 578T): — (GI% < 10)
GI% (NCI/ADR-RES): 12.03%
GI% (CAKI-1): 10.99%
GI% (OVCAR-4): — (GI% < 10)
GI% (HCT-116): 22.23%
GI% (UO-31): 11.53%
GI% (MDA-MB-231/ATCC): — (GI% < 10)
GI% (BT-549): — (GI% < 10)
GI% (HOP-92): 33.01%
GI% (SF-268): — (GI% < 10)
GI% (SK-OV-3): — (GI% < 10)
GI% (NCI-H226): 22.53%
GI% (NCI-H460): — (GI% < 10)
GI% (SK-MEL-2): — (GI% < 10)
GI% (T-47D): 23.03%
GI% (HL-60(TB)): 49.95%
GI% (SF-539): — (GI% < 10)
GI% (M14): — (GI% < 10)
GI% (RPMI-8226): 14.16%
GI% (LOX IMVI): 14.24%
GI% (SK-MEL-5): 11.85%
